Data as given in ChEMBL document CHEMBL3885861, “Open TG-GATES”.

Species: Rattus norvegicus
Assay: Open TG-GATES - Regimen: Daily Repeat
Format: toxicity, organism-based, Sprague-Dawley
Design: regimen Daily Repeat, gender Male, age 6 weeks
Details: in vivo, po, 0 mg/kg, route gavage, dose level Control; for APTT / Bas / Eos / Fbg / Hb / Ht / Lym / MCH / MCHC / MCV / Mono / Neu / PT / Plat / RBC / Ret / WBC: tissue Blood; for KIDNEY_L / KIDNEY_R / KIDNEY_TOTAL: tissue Kidney; for LIVER: tissue Liver; for A/G / ALP / ALT / AST / BUN / CRE / Ca / Cl / DBIL / GLC / IP / K / LDH / Na / PL / RALB / TBIL / TC / TG / TP / gamma-GTP: tissue Plasma

Structure (SMILES): NC1=NC(=O)C(c2ccccc2)O1 (configuration not stated) [PEMOLINE]
- TERMINAL_BW (72 h, time 3 day): 236.5 g
- APTT (72 h, time 3 day): 16.2 s
- Bas (72 h, time 3 day): 0%
- Eos (72 h, time 3 day): 1%
- Fbg (72 h, time 3 day): 282.2 mg/dL
- Hb (72 h, time 3 day): 13.4 g/dL
- Ht (72 h, time 3 day): 39.7%
- Lym (72 h, time 3 day): 77.6%
- MCH (72 h, time 3 day): 21.7 pg
- MCHC (72 h, time 3 day): 33.7%
- MCV (72 h, time 3 day): 64.3 fL
- Mono (72 h, time 3 day): 3.4%
- Neu (72 h, time 3 day): 17.6%
- PT (72 h, time 3 day): 12.8 s
- Plat (72 h, time 3 day): 105.9 x10_4/uL
- RBC (72 h, time 3 day): 617.8 x10_4/ul
- Ret (72 h, time 3 day): 8%
- WBC (72 h, time 3 day): 90 x10_2/uL
- KIDNEY_L (72 h, time 3 day): 1 g
- KIDNEY_R (72 h, time 3 day): 1 g
- KIDNEY_TOTAL (72 h, time 3 day): 2 g
- LIVER (72 h, time 3 day): 11 g
- A/G (72 h, time 3 day): 0.9
- ALP (72 h, time 3 day): 1625 IU/L
- ALT (72 h, time 3 day): 43 IU/L
- AST (72 h, time 3 day): 70 IU/L
- BUN (72 h, time 3 day): 14.8 mg/dL
- CRE (72 h, time 3 day): 0.2 mg/dL
- Ca (72 h, time 3 day): 10.7 mg/dL
- Cl (72 h, time 3 day): 105.8 meq/L
- DBIL (72 h, time 3 day): 0.022 mg/dL
- GLC (72 h, time 3 day): 184 mg/dL
- IP (72 h, time 3 day): 7.6 mg/dL
- K (72 h, time 3 day): 3.9 meq/L
- LDH (72 h, time 3 day): 58.6 IU/L
- Na (72 h, time 3 day): 143 meq/L
- PL (72 h, time 3 day): 147.6 mg/dL
- RALB (72 h, time 3 day): 2.6 g/dL
- TBIL (72 h, time 3 day): 0.026 mg/dL
- TC (72 h, time 3 day): 86 mg/dL
- TG (72 h, time 3 day): 88.6 mg/dL
- TP (72 h, time 3 day): 5.5 g/dL
- gamma-GTP (72 h, time 3 day): 1 IU/L
- TERMINAL_BW ([…], time 7 day): 274.2 g
- TERMINAL_BW ([…], time 14 day): 326.9 g
- TERMINAL_BW ([…], time 28 day): 438.2 g
- APTT ([…], time 7 day): 17.2 s
- Bas ([…], time 7 day): 0.2%
- Eos ([…], time 7 day): 1%
- Fbg ([…], time 7 day): 286.6 mg/dL
- Hb ([…], time 7 day): 13.8 g/dL
- Ht ([…], time 7 day): 40%
- Lym ([…], time 7 day): 75.4%
- MCH ([…], time 7 day): 21.6 pg
- MCHC ([…], time 7 day): 34.4%
- MCV ([…], time 7 day): 62.7 fL
- Mono ([…], time 7 day): 3.4%
- Neu ([…], time 7 day): 19.2%
- PT ([…], time 7 day): 12.9 s
- Plat ([…], time 7 day): 126.1 x10_4/uL
- RBC ([…], time 7 day): 638.2 x10_4/ul
- Ret ([…], time 7 day): 6.4%
- WBC ([…], time 7 day): 103.3 x10_2/uL
- APTT ([…], time 14 day): 17.8 s
- Bas ([…], time 14 day): 0%
- Eos ([…], time 14 day): 0.8%
- Fbg ([…], time 14 day): 314 mg/dL
- Hb ([…], time 14 day): 13.9 g/dL
- Ht ([…], time 14 day): 39.7%
- Lym ([…], time 14 day): 75.2%
- MCH ([…], time 14 day): 21.3 pg
- MCHC ([…], time 14 day): 35%
- MCV ([…], time 14 day): 60.8 fL
- Mono ([…], time 14 day): 2.2%
- Neu ([…], time 14 day): 21.4%
- PT ([…], time 14 day): 12.8 s
- Plat ([…], time 14 day): 103.7 x10_4/uL
- RBC ([…], time 14 day): 653.2 x10_4/ul
- Ret ([…], time 14 day): 4.2%
- WBC ([…], time 14 day): 86.4 x10_2/uL
- APTT ([…], time 28 day): 17.4 s
- Bas ([…], time 28 day): 0.2%
- Eos ([…], time 28 day): 1%
- Fbg ([…], time 28 day): 268.4 mg/dL
- Hb ([…], time 28 day): 15.1 g/dL
- Ht ([…], time 28 day): 42.3%
- Lym ([…], time 28 day): 82.2%
- MCH ([…], time 28 day): 20.2 pg
- MCHC ([…], time 28 day): 35.7%
- MCV ([…], time 28 day): 56.5 fL
- Mono ([…], time 28 day): 2.6%
- Neu ([…], time 28 day): 12.6%
- PT ([…], time 28 day): 12.2 s
- Plat ([…], time 28 day): 108.5 x10_4/uL
- RBC ([…], time 28 day): 749.2 x10_4/ul
- Ret ([…], time 28 day): 2.8%
- WBC ([…], time 28 day): 121.3 x10_2/uL
- KIDNEY_L ([…], time 7 day): 1.1 g
- KIDNEY_R ([…], time 7 day): 1.1 g
- KIDNEY_TOTAL ([…], time 7 day): 2.2 g
- KIDNEY_L ([…], time 14 day): 1.3 g
- KIDNEY_R ([…], time 14 day): 1.3 g
- KIDNEY_TOTAL ([…], time 14 day): 2.6 g
- KIDNEY_L ([…], time 28 day): 1.4 g
- KIDNEY_R ([…], time 28 day): 1.4 g
- KIDNEY_TOTAL ([…], time 28 day): 2.9 g
- LIVER ([…], time 7 day): 13.2 g
- LIVER ([…], time 14 day): 14.4 g
- LIVER ([…], time 28 day): 18.9 g
- A/G ([…], time 7 day): 0.9
- ALP ([…], time 7 day): 1625.6 IU/L
- ALT ([…], time 7 day): 41.4 IU/L
- AST ([…], time 7 day): 68 IU/L
- BUN ([…], time 7 day): 15.4 mg/dL
- CRE ([…], time 7 day): 0.2 mg/dL
- Ca ([…], time 7 day): 10.6 mg/dL
- Cl ([…], time 7 day): 104.4 meq/L
- DBIL ([…], time 7 day): 0.022 mg/dL
- GLC ([…], time 7 day): 184 mg/dL
- IP ([…], time 7 day): 7.2 mg/dL
- K ([…], time 7 day): 3.8 meq/L
- LDH ([…], time 7 day): 80.2 IU/L
- Na ([…], time 7 day): 142 meq/L
- PL ([…], time 7 day): 160.8 mg/dL
- RALB ([…], time 7 day): 2.7 g/dL
- TBIL ([…], time 7 day): 0.028 mg/dL
- TC ([…], time 7 day): 84.2 mg/dL
- TG ([…], time 7 day): 131.8 mg/dL
- TP ([…], time 7 day): 5.8 g/dL
- gamma-GTP ([…], time 7 day): 1 IU/L
- A/G ([…], time 14 day): 0.8
- ALP ([…], time 14 day): 1289.6 IU/L
- ALT ([…], time 14 day): 46.2 IU/L
- AST ([…], time 14 day): 71.8 IU/L
- BUN ([…], time 14 day): 15.2 mg/dL
- CRE ([…], time 14 day): 0.2 mg/dL
- Ca ([…], time 14 day): 11.2 mg/dL
- Cl ([…], time 14 day): 105.4 meq/L
- DBIL ([…], time 14 day): 0.012 mg/dL
- GLC ([…], time 14 day): 180.2 mg/dL
- IP ([…], time 14 day): 8.3 mg/dL
- K ([…], time 14 day): 3.6 meq/L
- LDH ([…], time 14 day): 66.8 IU/L
- Na ([…], time 14 day): 144.6 meq/L
- PL ([…], time 14 day): 144.6 mg/dL
- RALB ([…], time 14 day): 2.7 g/dL
- TBIL ([…], time 14 day): 0.018 mg/dL
- TC ([…], time 14 day): 78.8 mg/dL
- TG ([…], time 14 day): 88.2 mg/dL
- TP ([…], time 14 day): 6 g/dL
- gamma-GTP ([…], time 14 day): 1 IU/L
- A/G ([…], time 28 day): 0.8
- ALP ([…], time 28 day): 980.4 IU/L
- ALT ([…], time 28 day): 41.2 IU/L
- AST ([…], time 28 day): 61.6 IU/L
- BUN ([…], time 28 day): 16.6 mg/dL
- CRE ([…], time 28 day): 0.2 mg/dL
- Ca ([…], time 28 day): 11.4 mg/dL
- Cl ([…], time 28 day): 104 meq/L
- DBIL ([…], time 28 day): 0.018 mg/dL
- GLC ([…], time 28 day): 182.2 mg/dL
- IP ([…], time 28 day): 6.9 mg/dL
- K ([…], time 28 day): 3.7 meq/L
- LDH ([…], time 28 day): 68.8 IU/L
- Na ([…], time 28 day): 143 meq/L
- PL ([…], time 28 day): 160.2 mg/dL
- RALB ([…], time 28 day): 2.8 g/dL
- TBIL ([…], time 28 day): 0.022 mg/dL
- TC ([…], time 28 day): 77.4 mg/dL
- TG ([…], time 28 day): 215 mg/dL
- TP ([…], time 28 day): 6.3 g/dL
- gamma-GTP ([…], time 28 day): 1 IU/L
